Literature values, collected in patent publication US20060013877A1 (Nanohybrid Co., Ltd., priority 2002, published 2006).

water solubility: about 1 mg/ml
Structure (SMILES): CCC(C)n1ncn(-c2ccc(N3CCN(c4ccc(OC[C@H]5CO[C@](Cn6cncn6)(c6ccc(Cl)cc6Cl)O5)cc4)CC3)cc2)c1=O (mixture of isomers) [itraconazole, (±)-cis-4-[4-[4-[4-[[2-(2,4-dichlorophenyl)-2-(1H-1,2,4-triazole-1-ylmethyl)-1,3-dioxoran-4-yl]methoxy]phenyl]-1-piperazinyl]phenyl]-2,4-dihydro-2-(1-methylpropyl)-3H-1,2,4-triazole-3-one]
